How the values were obtained:
[1] = test system: postprandial triglyceride values in the plasma of rats; assay: lipid stress test in rats with Triton WR-1339 (postprandial rise in plasma triglyceride values); format: in vivo
Description: For further examination and verification of the results determined in vitro, the triglyceride-reducing effect was tested in an animal experiment.
To this end a lipid stress test was carried out in rats with Triton WR-1339 to inhibit the triglyceride elimination from the blood and the postprandial rise in plasma triglyceride values over four hours The following test substances were used:
Orlistat as positive control.
As result, the rise in postprandial triglyceride values in the plasma of rats after administration of the test substances was recorded. […] They include linseed, sunflower, marigold and propolis.

pancreatic lipase = biological target: T1, pancreatic lipase (Homo sapiens, UniProt P16233); settings: application of Orlistat; cited from earlier work
T1 sequence (P16233 17-465): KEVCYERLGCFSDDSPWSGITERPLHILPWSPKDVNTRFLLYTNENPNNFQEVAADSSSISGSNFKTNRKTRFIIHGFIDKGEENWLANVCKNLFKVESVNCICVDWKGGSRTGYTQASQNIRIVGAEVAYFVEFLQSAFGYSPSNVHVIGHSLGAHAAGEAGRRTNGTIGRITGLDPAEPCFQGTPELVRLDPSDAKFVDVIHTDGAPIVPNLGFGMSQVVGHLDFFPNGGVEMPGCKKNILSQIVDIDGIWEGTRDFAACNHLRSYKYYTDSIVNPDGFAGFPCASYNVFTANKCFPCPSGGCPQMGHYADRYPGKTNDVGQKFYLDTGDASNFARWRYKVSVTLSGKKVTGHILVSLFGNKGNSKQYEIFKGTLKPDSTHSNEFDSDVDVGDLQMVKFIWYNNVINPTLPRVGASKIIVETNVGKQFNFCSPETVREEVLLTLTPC

triglyceride = settings: Tsujita et al. 1996; Kagawa et al. 1996, 1998; cited from earlier work

Compound	triglyceride values as a function of the time after food intake (in words) ([1]; rat plasma after lipid stress test, experimental period of four hours (FIG. 2))	undesired side effects (pancreatic lipase)	triglyceride-reducing (literature) (triglyceride)	triglyceride-reducing effect (in words) ([1]; rats, lipid stress test with Triton WR-1339, postprandial plasma triglyceride rise (FIG. 1))
CCCCCCCCCCC[C@@H](C[C@@H]1OC(=O)[C@H]1CCCCCC)OC(=O)[C@H](CC(C)C)NC=O [Orlistat, Tetrahydrolipstatin]	the lowest	oily or fatty stools	–	–
VVYP (UniProt P02070 32-35, looked up, fragment) [fragment 32-35 of the β-chain of bovine haemoglobin]	–	–	triglyceride-reducing	–
protamine	–	–	triglyceride reducing	no triglyceride-reducing effect was found

Source: patent publication US20080299234A1, “Medication Comprising Plant Extracts as a Lipase Inhibitor” (priority 2005, published 2008)
